Test results published in ChEMBL document CHEMBL6074699, “Innovative Cancer Therapies: Targeting Oncogenic Pathways through Placental Immunology, PROTAC Technology, and Kinase Degradation” (ACS Med Chem Lett, 2024).

How the values were obtained:
Type in all cases: cell-based
[1] = test system: Calu-1; test: PROTAC activity at DDB1/CDK4 in human Calu-1 cells assessed as induction of CDK4 degradation at 40 nM incubated for 16 hrs relative to control
[2] = test system: Calu-1; test: PROTAC activity at DDB1/CyclinD1 in human Calu-1 cells assessed as induction of cyclin D1 degradation at 40 nM incubated for 16 hrs relative to control
[3] = test system: Calu-1; test: PROTAC activity at DDB1/CyclinD1 in human Calu-1 cells assessed as induction of cyclin D1 degradation at 400 nM incubated for 16 hrs relative to control
[4] = test system: Calu-1; test: PROTAC activity at DDB1/CDK4 in human Calu-1 cells assessed as induction of CDK4 degradation at 400 nM incubated for 16 hrs relative to control

Compound: COc1ccc(NC(=O)c2ccc(C)nc2NCCCCCCCNC(=O)CN2CCN(c3ccc(Nc4ncc5c(C)c(C(C)=O)c(=O)n(C6CCCC6)c5n4)nc3)CC2)nn1
- Activity [1]: < 80%
- Activity [2]: > 80%
- Activity [3]: > 80%
- Activity [4]: > 80%

Compound: CNc1ccc(C(=O)Nc2ccc(N(C)C)nn2)c(NCCCCNC(=O)CCN2CCN(c3ccc(Nc4ncc5c(C)c(C(C)=O)c(=O)n(C6CCCC6)c5n4)nc3)CC2)n1
- Activity [1]: < 80%
- Activity [2]: > 80%
- Activity [3]: > 80%
- Activity [4]: < 80%

Compound: CC(=O)c1c(C)c2cnc(Nc3ccc(N4CCN(CC(=O)NCCCCCNc5nc(C6CC6)ccc5C(=O)Nc5ccc(N(C)C)nn5)CC4)cn3)nc2n(C2CCCC2)c1=O
- Activity [1]: > 80%
- Activity [2]: > 80%
- Activity [3]: > 80%
- Activity [4]: > 80%

Compound: CC(=O)c1c(C)c2cnc(Nc3ccc(N4CCN(CC(=O)NCCCCCCCNc5nc(C)ccc5C(=O)Nc5ccc(N(C)C)nn5)CC4)cn3)nc2n(C2CCCC2)c1=O
- Activity [1]: < 80%
- Activity [2]: > 80%
- Activity [3]: > 80%
- Activity [4]: > 80%

Compound: CNc1ccc(C(=O)Nc2ccc(N(C)C)nn2)c(NCCCCC(C)NC(=O)CN2CCN(c3ccc(Nc4ncc5c(C)c(C(C)=O)c(=O)n(C6CCCC6)c5n4)nc3)CC2)n1 (centres undefined)
- Activity [1]: > 80%
- Activity [2]: > 80%
- Activity [3]: > 80%
- Activity [4]: > 80%

Compound: CC(=O)c1c(C)c2cnc(Nc3ccc(N4CCN(CC(=O)NCCCCCCCNc5nc(C)ccc5C(=O)Nc5ccc(C)c(C6CC6)n5)CC4)cn3)nc2n(C2CCCC2)c1=O
- Activity [1]: < 80%
- Activity [2]: > 80%
- Activity [3]: > 80%
- Activity [4]: > 80%
